Data reported in US9512406B2, “Generating hepatocytes” (The J. David Gladstone Institutes, a testamentary trust …, priority 2013, dated 2016).
Numbered stars: 1 amine (or outer) side, 2 acyl side, 3 side chain; on linkers, the order of the positions; unused ones are H or OH. Square brackets hold non-standard residues; d marks the D form. Peptide text beside a SMILES is read from it. * marks the point of attachment. X1 = CC(N[*:1])C(=O)C(F)(F)C(=O)[*:2]; Boc = CC(C)(C)OC(=O)*

Key:
[1] = target: γ-secretase; conditions: for total β-amyloid; cited from earlier work
[2] = tested on: iMPC-EPCs; assay: Hepatocyte differentiation of iMPC-EPCs, ALB gene expression by qRT-PCR; conditions: day 18 of hepatocyte specification; particularly when applied together
Description: Error bars represent SEM of technical replicates (n=3).
For qRT-PCR analysis, total RNA was extracted using the miRNeasy Mini Kit (Qiagen) or RNeasy Plus Mini Kit in combination with QIAshredder (Qiagen). First-strand reverse transcription was performed with 0.5-1 μg RNA using the iScript cDNA Synthesis Kit (BioRad) or qScript cDNA Supermix (Quanta Biosciences). qRT-PCR was performed using PerfeCTa SYBR Green SuperMix (Quanta) or iQ SYBR Green Supermix (Bio-Rad) on an Applied Biosciences ViiA 7 Real-Time PCR System (Invitrogen). aHeps purchased from Yecuris or the Liver Tissue Cell Distribution System (LTCDS) were shipped overnight in suspension, centrifuged for 5 minutes at 300×g immediately after arrival, and stored as cell pellets at −80° C. prior to RNA extraction.
To improve hepatocyte differentiation, small molecules were screened for induction of ALB gene expression.

[3] = tested on: presenilase; conditions: at higher concentrations (20-400 μM); cited from earlier work
[4] = target: CYP2D6 (Homo sapiens, UniProt P10635); conditions: 2 mg/kg debrisoquine by gavage; mice repopulated with iMPC-Heps or aHeps
Chain of CYP2D6 (P10635 whole entry): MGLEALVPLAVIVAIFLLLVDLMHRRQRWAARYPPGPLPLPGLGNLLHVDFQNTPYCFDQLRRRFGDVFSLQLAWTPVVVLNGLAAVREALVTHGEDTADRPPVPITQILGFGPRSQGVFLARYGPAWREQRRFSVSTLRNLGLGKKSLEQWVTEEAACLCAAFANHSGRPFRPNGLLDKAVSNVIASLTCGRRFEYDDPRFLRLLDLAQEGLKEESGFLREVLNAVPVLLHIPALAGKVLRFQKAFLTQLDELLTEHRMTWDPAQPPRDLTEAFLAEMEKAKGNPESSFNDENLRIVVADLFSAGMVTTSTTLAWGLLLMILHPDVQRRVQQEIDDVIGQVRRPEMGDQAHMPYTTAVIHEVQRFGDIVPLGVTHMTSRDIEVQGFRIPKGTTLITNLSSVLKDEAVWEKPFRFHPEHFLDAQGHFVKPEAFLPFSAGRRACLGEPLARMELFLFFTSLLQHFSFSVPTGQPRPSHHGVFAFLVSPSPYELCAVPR
Text: Scale bar=100 μm. […] Scale bars=100 μm. […] Scale bars=100 μm.

[5] = target: SAPK2/p38 (Homo sapiens, UniProt Q16539); conditions: CK1 and ALK5 inhibitor versus SAPK2/p38; cited from earlier work
Chain of SAPK2/p38 (Q16539 whole entry): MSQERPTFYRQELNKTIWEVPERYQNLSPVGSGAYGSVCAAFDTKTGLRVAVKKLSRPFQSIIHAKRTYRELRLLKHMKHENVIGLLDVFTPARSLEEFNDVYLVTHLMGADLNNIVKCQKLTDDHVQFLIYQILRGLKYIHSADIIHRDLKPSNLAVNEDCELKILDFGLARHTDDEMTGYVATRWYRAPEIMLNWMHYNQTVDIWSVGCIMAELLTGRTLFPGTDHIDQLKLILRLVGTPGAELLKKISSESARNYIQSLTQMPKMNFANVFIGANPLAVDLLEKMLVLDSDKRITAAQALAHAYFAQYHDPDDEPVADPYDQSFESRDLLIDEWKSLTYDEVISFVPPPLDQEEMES

[6] = target: T1, calpain II (Homo sapiens, UniProt P17655); conditions: purified enzyme assay; read-out: IC50 against calpain II; cited from earlier work
T1 sequence (P17655 1-700): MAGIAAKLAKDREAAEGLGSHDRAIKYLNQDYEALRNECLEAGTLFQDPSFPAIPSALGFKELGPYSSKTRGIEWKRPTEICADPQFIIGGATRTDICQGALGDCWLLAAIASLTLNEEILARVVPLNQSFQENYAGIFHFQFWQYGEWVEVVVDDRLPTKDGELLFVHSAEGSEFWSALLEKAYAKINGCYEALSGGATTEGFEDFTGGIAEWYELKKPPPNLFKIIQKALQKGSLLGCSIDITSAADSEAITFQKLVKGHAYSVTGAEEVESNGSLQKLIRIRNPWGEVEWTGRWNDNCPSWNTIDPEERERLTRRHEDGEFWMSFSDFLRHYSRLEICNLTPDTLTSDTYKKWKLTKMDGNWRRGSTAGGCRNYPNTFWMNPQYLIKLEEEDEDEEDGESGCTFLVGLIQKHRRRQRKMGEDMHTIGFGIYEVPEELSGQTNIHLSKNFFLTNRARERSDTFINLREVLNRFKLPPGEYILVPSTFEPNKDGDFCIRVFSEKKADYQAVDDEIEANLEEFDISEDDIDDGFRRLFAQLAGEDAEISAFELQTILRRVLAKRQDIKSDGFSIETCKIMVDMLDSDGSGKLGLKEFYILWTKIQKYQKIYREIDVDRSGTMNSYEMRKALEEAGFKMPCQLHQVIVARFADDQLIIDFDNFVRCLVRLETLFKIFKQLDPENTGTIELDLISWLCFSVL
T1 sequence (P04632 1-268 partner): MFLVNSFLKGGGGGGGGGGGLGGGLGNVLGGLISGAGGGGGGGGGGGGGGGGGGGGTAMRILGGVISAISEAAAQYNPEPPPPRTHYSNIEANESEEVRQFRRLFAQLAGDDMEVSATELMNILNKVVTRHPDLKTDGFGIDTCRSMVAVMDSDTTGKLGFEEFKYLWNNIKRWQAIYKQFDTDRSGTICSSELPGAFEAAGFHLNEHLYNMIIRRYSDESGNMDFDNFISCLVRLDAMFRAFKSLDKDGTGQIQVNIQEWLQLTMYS

[7] = tested on: Human newborn fibroblasts (CRL-2097, ATCC); assay: Reprogramming of newborn fibroblasts to endoderm, FOXA2-positive colonies by immunostaining; conditions: day 28; added to CHIR/Activin A reprogramming medium
Description: The small molecules tested included combinations of CHIR99021 (CH), dilauroyl phosphatidylcholine (DLPC), sodium butyrate (NaB), parnate (Par), and RG108 (RG). […] Medium containing Activin A was additionally supplemented with the indicated small molecules.
Standard immunostaining was carried out as previously reported. […] Nuclei were visualized by Hoechst (Sigma-Aldrich) staining. Images were captured using a Nikon Eclipse TE2000-U microscope.
Next, EGF and bFGF were replaced with Activin A to induce Nodal signaling and promote endoderm fate (see FIG. 1A). […] To improve the efficiency of endoderm differentiation, the cells were exposed to several small molecules.

[8] = tested on: iMPC-EPCs; assay: Expansion of iMPC-EPC colonies
[9] = tested on: histone deacetylases (HDACs); conditions: isoform not stated; read-out: IC50 (histone deacetylase inhibition); cited from earlier work
[10] = tested on: HDAC activity in HeLa extracts; conditions: read-out: IC50 for inhibition of HDAC activity; cited from earlier work

With `C[C@H](NC(=O)Cc1cc(F)cc(F)c1)C(=O)N[C@H]1N=C(c2ccccc2)c2ccccc2N(C)C1=O` [Compound E] as the molecule, how does the IC50 [1] read?
The IC50 was 0.3 nM.

And the “induction of ALB gene expression” value [2]?
The value was “effective”.

And the “effect on presenilase activity” value [3]?
The value was “only weakly affects”.

With `N=C(N)N1Cc2ccccc2C(O)C1` (stereo not shown) [4-hydroxydebrisoquine] as the molecule, how does the “time of peak plasma level after gavage” value [4] read?
Its value is 1 h.

For `NC(=O)c1ccc(-c2nc(-c3ccc4c(c3)OCCO4)c(-c3ccccn3)[nH]2)cc1` [D 4476, 4-[4-(2,3-Dihydro-1,4-benzodioxin-6-yl)-5-(2-pyridinyl)-IH-imidazol-2-yl]benzamide], which “selectivity over SAPK2/p38” value [5] is on record?
The value was “greater than 20 fold”.

For `CCC(C)C(NC(=O)C(NC(=O)OC(C)(C)C)C(C)C)C(=O)NC(C)C(=O)C(F)(F)C(=O)NC(C(=O)NC(C(=O)OC)C(C)CC)C(C)C` (stereo not shown) [Gamma-Secretase Inhibitor II] (Boc-VI[X1]VI-OMe; configuration not given here), which IC50 [6] is on record?
Its IC50 is 100000 nM.

With `CCCCCCCCCCCC(=O)OC[C@H](COP(=O)([O-])OCC[N+](C)(C)C)OC(=O)CCCCCCCCCCC` [Dilauroyl phosphatidylcholine] as the molecule, how does the “increase in the number of FOXA2-positive colonies” value [7] read?
Its value is 2 fold.

Which iMPC-EPC colony size ([8]; EGF and bFGF added to CHIR99021 and A83-01) does the source give for bFGF: basic fibroblast growth factor here?
The iMPC-EPC colony size was “further increased”.

For `CC(/C=C/C(=O)NO)=C\[C@@H](C)C(=O)c1ccc(N(C)C)cc1` [Trichostatin A, (R,2E,4E)-6-(4-(dimethylamino)benzoyl)-N-hydroxy-4-methylhepta-2,4-dienamide], which IC50 [9] is on record?
Its IC50 is ~1.8 nM.

Which IC50 [9] does the source give for `Nc1ccccc1NC(=O)c1ccc(CNc2nccc(-c3cccnc3)n2)cc1` [MGCD0103, N-(2-aminophenyl)-4-[[(4-pyridin-3-ylpyrimidin-2-yl)amino]methyl]benzamide] here?
The IC50 was ~100 nM.

For `Cc1cccc(-c2nn(C(=S)Nc3ccccc3)cc2-c2ccnc3ccccc23)n1` [A83-01, 3-(6-Methyl-2-pyridinyl)-N-phenyl-4-(4-quinolinyl)-1H-pyrazole-1-carbothioamide], which iMPC-EPC colony size ([8]; CHIR99021 combined with A83-01) is on record?
The iMPC-EPC colony size was “increased”.

What about the “induction of ALB gene expression” value [2] of the same molecule?
Its value is “effective”.

With `Nc1ccccc1NC(=O)CCCCCCC(=O)Nc1ccccc1` [BML-210, N1-(2-aminophenyl)-N8-phenyl-octanediamide] as the molecule, how does the IC50 [10] read?
Its IC50 is ~80000 nM.

Which IC50 [9] does the source give for `Nc1ccccc1NC(=O)c1ccc(CNC(=O)OCc2cccnc2)cc1` [MS-27-275, pyridin-3-ylmethyl-N-[[4-[(2-aminophenyl)carbamoyl]phenyl]methyl]carbamate] here?
The IC50 was 100 to 1000 nM.

With `CC1(C)NC(=O)C(CCCCCC(=O)[C@H]2CO2)NC(=O)C2CCCN2C(=O)[C@@H](Cc2ccccc2)NC1=O` (stereo partly drawn) [Chlamydocin, (3R)-3-benzyl-6,6-dimethyl-9-[6-[(2R)-oxiran-2-yl]-6-oxohexyl]-1,4,7,10-tetrazabicyclo[10.3.0]pentadecane-2,5,8,11-tetrone] as the molecule, how does the IC50 [9] read?
Its IC50 is ~0.15 nM.

With `Cc1c[nH]c(-c2cnc(NCCNc3ccc(C#N)cn3)nc2-c2ccc(Cl)cc2Cl)n1` [CHIR99021, 6-(2-(4-(2,4-dichlorophenyl)-5-(4-methyl-1H-imidazol-2-yl)pyrimidin-2-ylamino)ethylamino)nicotinonitrile] as the molecule, how does the iMPC-EPC colony size ([8]; CHIR99021 combined with A83-01) read?
The iMPC-EPC colony size was “increased”.
